# System: TLR2 induced IL-6 in peripheral blood mononuclear cells (PBMCs)
# Assay: PBMC TLR2 Induced IL-6 Assay
# Format: cell-based, human
# Details: Homo sapiens, PBMC, 5 h, human PBMCs, 10 μg/ml lipoteichoic acid for 5 hours, IL-6 by ELISA; EC50 determinations are indicated with an asterisk; read-out: Cell EC50 (asterisk)
# Procedure: Peripheral blood mononuclear cells (PBMCs) were isolated from human blood containing the anti-coagulant EDTA (2.5 mM) by centrifugation over a FICOLL® gradient. PBMCs (250000 cells/well) were cultured in assay media (RPMI with 10% heat inactivated FCS) with compounds for 30 minutes at 37° C. in a 5% CO2 incubator. Following pretreatment with compounds, cells were stimulated for 5 hours with 10 μg/ml lipoteichoic acid (Invivogen, San Diego, Calif.), a TLR2 agonist. At the end of the culture, plates were centrifuged at 1800 rpm for 10 minutes to pellet the cells. Supernatants were harvested and analyzed for IL-6 levels by ELISA (BD Biosciences, San Jose, Calif.). Inhibition was calculated as either an IC50 or EC50. EC50 determinations are indicated with an asterisk.
row,SMILES,EC50
1,CC(C)Nc1cc(Nc2nc3cccnc3cc2F)ncc1C(=O)NC[C@@H](F)C(C)(C)O [Example 499],72 nM
2,CC(C)(O)[C@H](F)CNC(=O)c1cnc(Nc2nc3ccnn3cc2F)cc1N[C@H]1CCC[C@H]1F [Example 488],192 nM

# Same assay, conditions: Homo sapiens, PBMC, 5 h, human PBMCs, 10 μg/ml lipoteichoic acid for 5 hours, IL-6 by ELISA; value without asterisk; read-out: Cell IC50
row,SMILES,IC50
1,CCNc1cc(Nc2ccn3nccc3n2)ncc1C(=O)NC[C@@H](F)C(C)(C)O [Example 239],379 nM
2,O=C(NC[C@@H](F)CO)c1cnc(Nc2ccc3[nH]c(=O)sc3c2)cc1NC1CCCC1 [Example 6],231 nM
3,CC(C)(O)[C@H](F)CNC(=O)c1cnc(Nc2nc3ccnn3cc2F)cc1N[C@H]1CCC[C@@H]1O [Example 466],212 nM
4,Cc1cnc2ccc(Nc3cc(NC4CC4)c(C(=O)NC[C@@H](F)C(C)(C)O)cn3)nn12 [Example 276],256 nM
5,CC(C)(O)[C@H](F)CNC(=O)c1cnc(Nc2ccc3ncsc3c2)cc1Nc1ccc(-c2cc[nH]n2)cc1 [Example 414],256 nM
6,CC(C)(O)[C@H](F)CNC(=O)c1cnc(Nc2ccc3nonc3c2)cc1NC1CCOCC1 [Example 99],258 nM
7,CC(C)(O)[C@H](F)CNC(=O)c1cnc(Nc2ccc3ncsc3c2)cc1NC1CCCC1O (stereo partly shown) [Example 335],135 nM
8,CC(C)CCNc1cc(Nc2ccc3ncsc3c2)ncc1C(=O)NC[C@@H](F)C(C)(C)O [Example 163],230 nM
9,CN(C)C(=O)c1ccc(Nc2cc(Nc3ccc4ncsc4c3)ncc2C(=O)NC[C@@H](F)C(C)(C)O)cc1 [Example 323],207 nM
10,CC(C)(O)[C@H](F)CNC(=O)c1cnc(Nc2ccn3nccc3n2)cc1NCC(F)(F)F [Example 238],595 nM
11,N#CCNC(=O)c1cnc(Nc2ccc3ncsc3c2)cc1NC1CCCC1 [Example 153],510 nM
12,CC(C)(O)[C@H](F)CNC(=O)c1cnc(Nc2ccc3ncsc3c2)cc1N[C@@H](c1cccc(F)c1)[C@H](O)CO [Example 44],699 nM
13,CC(C)Nc1cc(Nc2ncc3ncccc3n2)ncc1C(=O)NC[C@@H](F)C(C)(C)O [Example 370],571 nM
14,Cc1cc2nc(Nc3cc(NC(C)C)c(C(=O)NC[C@@H](F)C(C)(C)O)cn3)ccn2n1 [Example 250],748 nM
15,CC(C)(O)CCNC(=O)c1cnc(Nc2ccc3ncsc3c2)cc1N[C@H]1CC[C@@H](F)CC1 [Example 174],150 nM
16,CC(C)Nc1cc(Nc2ncc3ncsc3c2F)ncc1C(=O)NC[C@@H](F)C(C)(C)O [Example 440],330 nM

row,SMILES,IC50
1,CC(C)(O)[C@H](F)CNC(=O)c1cnc(Nc2nc3ccnn3cc2F)cc1NC1CC1 [Example 269],445 nM
2,CC(C)(O)[C@H](F)CNC(=O)c1cnc(Nc2ccc3ncsc3c2)cc1NCC(F)(F)F [Example 84],501 nM
3,O=C(NC[C@@H](F)CO)c1cnc(Nc2ccc3ncsc3c2)cc1NC1CC1 [Example 7],732 nM
4,CC(C)Nc1cc(Nc2nc3ccnn3cc2F)ncc1C(=O)NCC(F)(F)C(C)(C)O [Example 522],795 nM
5,CC(C)Nc1cc(Nc2ccc3ncsc3c2)ncc1C(=O)N[C@H]1CCN(S(C)(=O)=O)C1 [Example 215],566 nM
6,CC(C)(O)[C@H](F)CNC(=O)c1cnc(Nc2ccc3ncncc3c2)cc1NC1CCCC1F (stereo partly shown) [Example 345],246 nM
7,CC(C)CCNC(=O)c1cnc(Nc2ccc3ncsc3c2)cc1NC(C)C [Example 210],551 nM
8,CC(C)(O)[C@H](F)CNC(=O)c1cnc(Nc2ccc3ncoc3c2)cc1N[C@@H]1CCC[C@H]1O [Example 336],466 nM
9,CC(C)(O)[C@H](F)CNC(=O)c1cnc(Nc2ccc3ncncc3c2)cc1NC1CC1 [Example 81],100 nM
10,CC(C)Nc1cc(Nc2ccc3ncsc3c2)ncc1C(=O)NC[C@@H](F)C(O)(C1CC1)C(F)(F)F (stereo partly shown) [Example 30],228 nM
11,CC(C)(O)[C@H](F)CNC(=O)c1cnc(Nc2ccc3ccncc3c2)cc1NC1CC1 [Example 132],350 nM
12,CC(C)(O)[C@H](F)CNC(=O)c1cnc(Nc2ccn3nccc3n2)cc1NC1CCC1 [Example 241],516 nM
13,CC(C)(O)[C@H](F)CNC(=O)c1cnc(Nc2ccc3nonc3c2)cc1NC1CC1 [Example 80],271 nM
14,CC(C)Nc1cc(Nc2ccc3ncccc3c2)ncc1C(=O)NC[C@@H](F)C(C)(C)O [Example 47],571 nM
15,CC(C)Nc1cc(Nc2ccc3ncsc3c2)ncc1C(=O)NCC[C@@H](C)NC(=O)N1CCOCC1 [Example 182],508 nM
16,CC(C)Nc1cc(Nc2ccc3[nH]c(=O)sc3c2)ncc1C(=O)NC[C@@H](F)C(C)(C)O [Example 40],503 nM

# Same assay, conditions: Homo sapiens, PBMC, 5 h, read-out: Cell IC50
row,SMILES,IC50
1,CNC(=O)c1cnc(Nc2ccc3ncsc3c2)cc1N[C@@H](c1ccccc1)[C@H](O)CO [Example 143],295 nM

# Same assay, conditions: human PBMCs, 10 μg/ml lipoteichoic acid for 5 hours, IL-6 by ELISA; value without asterisk; read-out: Cell IC50
row,SMILES,IC50
1,CC(C)(O)[C@H](F)CNC(=O)c1cnc(Nc2ccc3ncsc3c2)cc1NCC1CCCC1F (stereo partly shown) [Example 117],363 nM
2,CC(C)(O)[C@H](F)CNC(=O)c1cnc(Nc2ccn3nccc3n2)cc1NC1CCC(F)(F)C1 (stereo partly shown) [Example 242],179 nM
3,CC(C)(O)[C@H](F)CNC(=O)c1cnc(Nc2ccc3ncccc3n2)cc1NC1CCCOC1 (stereo partly shown) [Example 432],503 nM
4,CC(C)(O)[C@H](F)CNC(=O)c1cnc(Nc2ccn3nccc3n2)cc1NC1CCC(F)(F)C1 (stereo partly shown) [Example 258],432 nM
5,CC(C)(O)[C@H](F)CNC(=O)c1cnc(Nc2ccc3ncsc3c2)cc1NCC1CCCC1F (stereo partly shown) [Example 118],109 nM
6,CC(C)(O)[C@H](F)CNC(=O)c1cnc(Nc2ccn3nccc3n2)cc1NC1CCOCC1F (stereo partly shown) [Example 266],548 nM
7,CC(C)(O)[C@H](F)CNC(=O)c1cnc(Nc2ccn3nccc3n2)cc1NC1CCOCC1F (stereo partly shown) [Example 271],128 nM
8,CC(C)(O)[C@H](F)CNC(=O)c1cnc(Nc2ccn3nccc3n2)cc1NC1CCC(F)(F)C1 (stereo partly shown) [Example 259],132 nM
9,Cc1cc2nc(Nc3cc(NC4CCC(F)C4)c(C(=O)NC[C@@H](F)C(C)(C)O)cn3)ccn2n1 (stereo partly shown) [Example 380],468 nM
10,CC(C)Nc1cc(Nc2ccc3nsnc3c2)ncc1C(=O)NC[C@@H](F)C(O)C(C)C (stereo partly shown) [Example 22],456 nM
11,CC(O)([C@H](F)CNC(=O)c1cnc(Nc2ccc3ncsc3c2)cc1NC1CCCC1F)C(F)(F)F (stereo in doubt) [Example 342],71 nM
12,CC(C)(O)[C@H](F)CNC(=O)c1cnc(Nc2ccc3ncsc3c2)cc1NCC1CCCC1O (stereo partly shown) [Example 114],491 nM
13,CC(C)(O)[C@H](F)CNC(=O)c1cnc(Nc2ccc3ncsc3n2)cc1NC1CCOCC1F (stereo partly shown) [Example 418],30 nM
14,CC(C)(O)[C@H](F)CNC(=O)c1cnc(Nc2ccc3ncsc3c2)cc1NCC1CCCC1O (stereo partly shown) [Example 113],803 nM
15,CC(O)([C@H](F)CNC(=O)c1cnc(Nc2ccc3ncsc3c2)cc1NC1CCCC1F)C(F)(F)F (stereo in doubt) [Example 341],97 nM
16,CC(O)([C@H](F)CNC(=O)c1cnc(Nc2ccc3ncsc3c2)cc1NC1CCCC1F)C(F)(F)F (stereo in doubt) [Example 339],460 nM
17,CC(C)(O)[C@H](F)CNC(=O)c1cnc(Nc2ccn3nccc3n2)cc1NC1CCOCC1F (stereo partly shown) [Example 270],265 nM
18,CC(C)(O)[C@H](F)CNC(=O)c1cnc(Nc2ccc3ncsc3c2)cc1NCC1CCCC1O (stereo partly shown) [Example 112],203 nM
19,CC(C)Nc1cc(Nc2ccc3ncsc3c2)ncc1C(=O)NC[C@@H](F)C(O)(C1CC1)C(F)(F)F (stereo partly shown) [Example 31],249 nM
20,CC(C)(O)[C@H](F)CNC(=O)c1cnc(Nc2ccn3nccc3n2)cc1NC1CCOCC1F (stereo partly shown) [Example 249],554 nM
